Usually pIC50 stands for −log10 of the IC50, conventionally taken in molar units.

The text below walks through data of ChEMBL document CHEMBL5126523, “Recent advances in DDR (DNA damage response) inhibitors for cancer therapy” (Eur J Med Chem, 2022).

Molecules are shown by their SMILES. pIC50: −log10 of the molar value. Where only a bound is given, the exact number is not on record here.

In one data set the test system is NCI-H1299. As to the kind of experiment: Inhibition of cell proliferation in human NCI-H1299 cells incubated for 3 days by MTT assay. The format is functional, cell-based. As to conditions: NCI-H1299, 72 h. For orientation: Tetrazolium dyes change colour on reduction, which living cells bring about.
Data set [1] concerns the target T1, Poly [ADP-ribose] polymerase 1 (Homo sapiens, UniProt P09874). Kind of data set: Inhibition of PARP1 (unknown origin) by ELISA. On the technique in general: ELISA stands for enzyme-linked immunosorbent assay.
Data set [2] can be described thus: Oral bioavailability in BALB/c mouse at 2 mg/kg by LC-MS/MS analysis. The format is ADME, organism-based. As to conditions: in vivo.
For data set [3], the target named is T1, Poly [ADP-ribose] polymerase 1. Kind of data set: Inhibition of PARP1 (unknown origin) incubated for 1 hr by chemiluminescence assay.
Data set [4] deals with Poly [ADP-ribose] polymerase tankyrase-1 (Homo sapiens, UniProt O95271). Kind of data set: Inhibition of tankyrase 1 (unknown origin) incubated for 1 hr by chemiluminescence assay.
The target of data set [5] is Poly [ADP-ribose] polymerase tankyrase-2 (Homo sapiens, UniProt Q9H2K2). Kind of data set: Inhibition of tankyrase 2 (unknown origin) incubated for 1 hr by chemiluminescence based assay.
Data set [6] concerns the target T2, DNA-dependent protein kinase catalytic subunit (Homo sapiens, UniProt P78527). Kind of data set: Inhibition of DNA-PK (unknown origin) incubated for 3 hrs by ADP-Glo kinase assay. In general terms: In ADP-Glo the light output rises with the ADP produced.
In data set [7] the target is T3, ATR/ATRIP (Homo sapiens, UniProt Q13535). Kind of data set: Inhibition of human FLAG-tagged ATR/c-Myc-tagged ATRIP expressed in mammalian expression system using p53 as substrate incubated for 2 hrs by fluorescence based assay.
The next data set relates to LoVo. As to the kind of experiment: Inhibition of cell growth in human LoVo cells assessed as measuring ATP content incubated for 3 days by Cell Titer Glo assay. It counts as functional, cell-based. As to conditions: 72 h.
Data set [8] deals with HCT-116. Kind of data set: Inhibition of cell proliferation in human HCT-116 cells incubated for 72 hrs by SRB assay. The format is functional, cell-based. As to conditions: HCT-116, 72 h.
For a further data set, the system named is HCC1937. Kind of data set: Inhibition of cell proliferation in human HCC1937 cells incubated for 72 hrs by SRB assay. The format is functional, cell-based. The note with it: HCC1937, 72 h.
For the next data set, the system named is MDA-MB-231. Kind of data set: Inhibition of cell proliferation in human MDA-MB-231 cells incubated for 72 hrs by SRB assay. The format is functional, cell-based. As to conditions: MDA-MB-231, 72 h.
Data set [9] deals with T3, ATR/ATRIP. Kind of data set: Inhibition of full-length recombinant human ATR/ATRIP using p53 as substrate incubated for 30 mins in presence of ATP by HTRF assay. It counts as protein-complex assay.
Data set [10] deals with HCT-116. Kind of data set: Inhibition of cell proliferation in human HCT-116 incubated for 48 hrs by Cell Titer Glo assay. The format is functional, cell-based. The note with it: HCT-116, 48 h.
The subject of another data set is NCI-H23. As to the kind of experiment: Inhibition of cell proliferation in human NCI-H23 incubated for 48 hrs by Cell Titer Glo assay. The format is functional, cell-based. As to conditions: NCI-H23, 48 h.
For data set [11], the target named is Serine/threonine-protein kinase ATR (Homo sapiens, UniProt Q13535). Kind of data set: Inhibition of ATR (unknown origin).
Data set [12] concerns the target T4, Serine-protein kinase ATM (Homo sapiens, UniProt Q13315). As to the kind of experiment: Inhibition of ATM (unknown origin).
For data set [13], the species on record is Homo sapiens. Kind of data set: Selectivity index, ratio of IC50 for ATM (unknown origin) to IC50 for ATR (unknown origin).
The species named for data set [14] is Homo sapiens. Kind of data set: Selectivity index, ratio of IC50 for ATM (unknown origin) to IC50 for PI3K-alpha (unknown origin).
The species entered for data set [15] is Homo sapiens. Kind of data set: Selectivity index, ratio of IC50 for ATM (unknown origin) to IC50 for mTOR (unknown origin).
Data set [16] deals with Phosphatidylinositol 4,5-bisphosphate 3-kinase catalytic subunit alpha isoform (Homo sapiens, UniProt P42336). As to the kind of experiment: Inhibition of PI3K-alpha (unknown origin).
Data set [17] addresses Serine/threonine-protein kinase mTOR (Homo sapiens, UniProt P42345). Kind of data set: Inhibition of mTOR (unknown origin).
The target of data set [18] is T3, ATR/ATRIP. As to the kind of experiment: Inhibition of full-length human recombinant FLAG-tagged ATR/c-Myc-tagged ATRIP using p53 as substrate incubated for 30 mins in presence of ATP by HTRF assay. The format is protein-complex assay.
The target of the next data set is Wee1-like protein kinase (Homo sapiens, UniProt P30291). Kind of data set: Displacement of tracer 178 from WEE1 (unknown origin) incubated for 1 hr by Lantha Screen assay.
Wee1-like protein kinase, sequence (P30291 whole entry): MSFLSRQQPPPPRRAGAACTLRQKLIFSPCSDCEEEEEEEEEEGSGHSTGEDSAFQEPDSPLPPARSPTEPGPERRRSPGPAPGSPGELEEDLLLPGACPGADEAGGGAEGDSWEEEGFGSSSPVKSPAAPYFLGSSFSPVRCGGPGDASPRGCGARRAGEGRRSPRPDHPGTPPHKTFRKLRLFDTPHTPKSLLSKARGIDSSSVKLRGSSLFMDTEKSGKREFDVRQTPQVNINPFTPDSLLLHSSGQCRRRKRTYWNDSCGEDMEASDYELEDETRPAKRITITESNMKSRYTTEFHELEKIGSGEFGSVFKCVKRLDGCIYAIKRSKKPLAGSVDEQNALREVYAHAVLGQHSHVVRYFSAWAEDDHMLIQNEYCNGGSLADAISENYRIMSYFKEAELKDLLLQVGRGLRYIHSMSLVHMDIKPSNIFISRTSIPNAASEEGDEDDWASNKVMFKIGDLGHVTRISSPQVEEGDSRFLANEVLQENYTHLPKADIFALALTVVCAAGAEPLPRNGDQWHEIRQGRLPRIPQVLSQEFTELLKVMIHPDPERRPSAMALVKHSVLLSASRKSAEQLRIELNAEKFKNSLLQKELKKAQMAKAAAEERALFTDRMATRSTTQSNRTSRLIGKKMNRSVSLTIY
Data set [19] addresses T3, ATR/ATRIP. As to the kind of experiment: Inhibition of full-length human recombinant FLAG-tagged ATR/c-Myc-tagged ATRIP using p53 as substrate incubated for 30 mins in presence of ATP by fluorescence based assay. It counts as protein-complex assay.
For another data set, the system named is DU-145. Kind of data set: Inhibition of cell proliferation in human DU-145 cells incubated for 4 days by MTT assay. As to conditions: DU-145, 96 h. It counts as functional, cell-based.
For a further data set, the system named is NCI-H460. Kind of data set: Inhibition of cell proliferation in human NCI-H460 cells incubated for 4 days by MTT assay. It counts as functional, cell-based. As to conditions: NCI-H460, 96 h.
The target of data set [20] is T2, DNA-dependent protein kinase catalytic subunit. Kind of data set: Inhibition of full-length human DNA-PK expressed in baculovirus expression system using p53 as substrate incubated for 1 hr in presence of ATP by ELISA.
Data set [21] deals with T4, Serine-protein kinase ATM. As to the kind of experiment: Inhibition of ATM in human MCF7 cells […] incubated for 1 hr by Cell Western assay. The format is cell-based.
For data set [22], the target named is T1, Poly [ADP-ribose] polymerase 1. Kind of data set: Inhibition of N-terminal GST-tagged recombinant human PARP1 (2 to 1014 residues) expressed in Sf9 insect cells incubated for 1 hr by colorimetric assay.

T4 sequence (Q13315 whole entry): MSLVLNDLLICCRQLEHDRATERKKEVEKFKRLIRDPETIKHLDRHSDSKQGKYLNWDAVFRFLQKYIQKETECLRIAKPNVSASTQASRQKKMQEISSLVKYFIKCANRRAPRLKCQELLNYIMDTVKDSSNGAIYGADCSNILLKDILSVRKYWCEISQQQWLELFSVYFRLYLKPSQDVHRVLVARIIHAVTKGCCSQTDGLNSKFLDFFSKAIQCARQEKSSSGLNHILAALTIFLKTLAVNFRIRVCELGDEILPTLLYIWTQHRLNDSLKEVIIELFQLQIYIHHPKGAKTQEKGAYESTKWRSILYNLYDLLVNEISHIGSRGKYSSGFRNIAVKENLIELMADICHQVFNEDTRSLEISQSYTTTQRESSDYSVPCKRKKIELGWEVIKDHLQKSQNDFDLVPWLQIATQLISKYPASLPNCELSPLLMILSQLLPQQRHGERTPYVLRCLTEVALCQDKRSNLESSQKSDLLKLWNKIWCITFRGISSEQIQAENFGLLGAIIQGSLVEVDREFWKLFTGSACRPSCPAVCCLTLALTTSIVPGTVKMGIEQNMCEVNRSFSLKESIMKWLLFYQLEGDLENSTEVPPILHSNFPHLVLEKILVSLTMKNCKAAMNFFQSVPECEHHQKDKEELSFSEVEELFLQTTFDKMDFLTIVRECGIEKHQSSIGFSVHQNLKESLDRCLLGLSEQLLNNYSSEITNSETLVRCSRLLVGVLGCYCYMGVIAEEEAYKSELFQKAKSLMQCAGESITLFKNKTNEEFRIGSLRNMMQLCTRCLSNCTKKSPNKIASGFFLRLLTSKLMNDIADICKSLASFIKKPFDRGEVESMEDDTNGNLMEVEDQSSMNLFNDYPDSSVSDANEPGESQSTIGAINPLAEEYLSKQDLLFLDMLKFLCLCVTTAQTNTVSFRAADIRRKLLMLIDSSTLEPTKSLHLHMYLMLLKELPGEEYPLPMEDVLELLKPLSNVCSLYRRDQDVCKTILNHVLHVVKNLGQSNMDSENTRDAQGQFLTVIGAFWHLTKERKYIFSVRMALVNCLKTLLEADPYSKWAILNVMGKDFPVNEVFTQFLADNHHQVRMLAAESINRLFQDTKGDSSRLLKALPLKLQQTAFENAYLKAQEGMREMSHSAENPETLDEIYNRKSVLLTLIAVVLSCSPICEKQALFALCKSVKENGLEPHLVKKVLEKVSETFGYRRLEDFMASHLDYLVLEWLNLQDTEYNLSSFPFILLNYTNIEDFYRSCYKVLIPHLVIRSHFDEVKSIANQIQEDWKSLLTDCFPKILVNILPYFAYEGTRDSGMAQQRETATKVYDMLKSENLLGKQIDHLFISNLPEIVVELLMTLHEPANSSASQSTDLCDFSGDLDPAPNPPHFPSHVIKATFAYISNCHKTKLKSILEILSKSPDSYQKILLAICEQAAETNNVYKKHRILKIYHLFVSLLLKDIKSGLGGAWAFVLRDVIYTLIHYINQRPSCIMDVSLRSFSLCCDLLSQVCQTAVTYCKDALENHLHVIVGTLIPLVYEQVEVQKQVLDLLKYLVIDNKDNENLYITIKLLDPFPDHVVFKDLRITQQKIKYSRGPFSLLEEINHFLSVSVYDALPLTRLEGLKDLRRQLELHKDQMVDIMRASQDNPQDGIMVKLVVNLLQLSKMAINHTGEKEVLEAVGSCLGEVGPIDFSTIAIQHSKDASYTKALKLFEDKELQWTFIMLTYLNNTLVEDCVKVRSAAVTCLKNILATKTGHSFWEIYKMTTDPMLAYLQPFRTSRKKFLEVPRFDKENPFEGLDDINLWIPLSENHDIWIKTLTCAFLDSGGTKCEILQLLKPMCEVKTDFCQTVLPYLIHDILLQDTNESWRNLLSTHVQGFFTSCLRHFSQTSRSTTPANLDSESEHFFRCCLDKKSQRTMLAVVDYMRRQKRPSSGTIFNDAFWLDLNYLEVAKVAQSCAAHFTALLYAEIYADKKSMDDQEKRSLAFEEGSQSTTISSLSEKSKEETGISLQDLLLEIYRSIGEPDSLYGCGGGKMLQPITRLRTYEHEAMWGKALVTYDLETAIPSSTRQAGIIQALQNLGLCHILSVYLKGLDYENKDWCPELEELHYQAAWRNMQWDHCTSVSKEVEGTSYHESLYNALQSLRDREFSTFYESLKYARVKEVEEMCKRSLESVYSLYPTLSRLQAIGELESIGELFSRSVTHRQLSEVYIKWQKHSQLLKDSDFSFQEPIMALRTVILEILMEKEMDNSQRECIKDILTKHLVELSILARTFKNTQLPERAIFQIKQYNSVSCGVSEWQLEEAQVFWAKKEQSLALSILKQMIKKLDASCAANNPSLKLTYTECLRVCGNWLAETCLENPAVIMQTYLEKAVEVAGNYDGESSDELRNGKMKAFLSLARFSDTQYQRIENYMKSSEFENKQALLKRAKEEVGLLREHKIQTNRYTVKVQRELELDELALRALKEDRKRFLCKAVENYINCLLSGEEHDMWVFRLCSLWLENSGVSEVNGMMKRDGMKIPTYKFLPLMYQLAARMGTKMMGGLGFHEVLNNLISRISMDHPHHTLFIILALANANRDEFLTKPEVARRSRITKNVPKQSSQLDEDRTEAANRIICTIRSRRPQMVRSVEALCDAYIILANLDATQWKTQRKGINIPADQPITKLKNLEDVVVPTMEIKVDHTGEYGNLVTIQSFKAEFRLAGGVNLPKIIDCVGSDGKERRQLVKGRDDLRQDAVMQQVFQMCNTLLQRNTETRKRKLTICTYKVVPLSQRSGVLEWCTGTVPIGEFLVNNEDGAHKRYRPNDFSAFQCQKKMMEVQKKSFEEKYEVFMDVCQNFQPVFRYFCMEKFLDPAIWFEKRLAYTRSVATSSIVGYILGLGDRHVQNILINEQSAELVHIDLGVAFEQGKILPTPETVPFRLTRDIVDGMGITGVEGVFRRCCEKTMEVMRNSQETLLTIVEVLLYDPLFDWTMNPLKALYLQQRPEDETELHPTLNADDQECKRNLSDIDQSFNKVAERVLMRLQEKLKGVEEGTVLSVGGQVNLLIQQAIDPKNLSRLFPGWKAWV
T1 sequence (P09874 whole entry): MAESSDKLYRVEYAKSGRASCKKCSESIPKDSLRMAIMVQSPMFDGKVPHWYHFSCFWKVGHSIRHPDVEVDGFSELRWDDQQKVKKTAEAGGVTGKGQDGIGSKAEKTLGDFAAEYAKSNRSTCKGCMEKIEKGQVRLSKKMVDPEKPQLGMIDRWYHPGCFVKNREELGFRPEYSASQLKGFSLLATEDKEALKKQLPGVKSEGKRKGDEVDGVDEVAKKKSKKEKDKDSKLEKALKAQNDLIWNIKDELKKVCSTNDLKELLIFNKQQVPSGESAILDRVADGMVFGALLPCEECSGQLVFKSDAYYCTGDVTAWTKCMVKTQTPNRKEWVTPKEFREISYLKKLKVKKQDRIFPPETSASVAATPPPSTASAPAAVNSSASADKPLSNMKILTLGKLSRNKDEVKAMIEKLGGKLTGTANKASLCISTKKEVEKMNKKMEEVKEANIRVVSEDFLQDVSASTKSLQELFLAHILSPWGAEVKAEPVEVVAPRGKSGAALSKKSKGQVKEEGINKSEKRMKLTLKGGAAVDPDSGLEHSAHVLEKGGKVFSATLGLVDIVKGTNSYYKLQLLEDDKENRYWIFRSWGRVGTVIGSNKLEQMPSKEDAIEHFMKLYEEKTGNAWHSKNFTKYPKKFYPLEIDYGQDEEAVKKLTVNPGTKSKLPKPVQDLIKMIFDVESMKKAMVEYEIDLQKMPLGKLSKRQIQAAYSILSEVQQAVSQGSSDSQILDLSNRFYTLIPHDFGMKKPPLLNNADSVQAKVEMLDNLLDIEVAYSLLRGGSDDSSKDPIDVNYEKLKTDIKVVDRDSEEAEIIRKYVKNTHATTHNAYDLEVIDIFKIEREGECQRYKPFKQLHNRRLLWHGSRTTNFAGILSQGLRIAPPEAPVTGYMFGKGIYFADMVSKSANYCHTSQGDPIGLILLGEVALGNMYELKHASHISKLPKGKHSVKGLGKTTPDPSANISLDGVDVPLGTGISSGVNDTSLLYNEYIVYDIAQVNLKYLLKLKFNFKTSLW

Molecule `C[C@@H]1CN(c2ccc(Nc3cc4c(cn3)C(=O)N(c3c(Cl)cccc3Cl)C3=NCCN34)cc2)C[C@H](C)N1C` had a pIC50 with NCI-H1299 of 6.98.
In data set [1], `C[C@H]1CN(C(=O)c2cc(Cc3n[nH]c(=O)c4c3CCCC4)ccn2)CCN1C(=O)C(=O)C1CC1` gave a pIC50 above 6.70.
`Cc1cc2ncnn2cc1Nc1ncc2c(n1)C1(CCC(C)(C)CC1)C(=O)N2C`: the bioavailability in data set [2] came to 114%.
In the case of `COc1ccc(NC(=O)c2ccc(NC(=O)N3CCN(C(=O)c4cc(Cc5n[nH]c(=O)c6ccccc56)ccc4F)CC3)cc2)cc1`, the pIC50 is 9.60 in data set [3], 7.87 in data set [4] and 8.38 in data set [5].
For `Cc1cc2ncnn2cc1Nc1ncc2c(n1)n(N1CCOCC1)c(=O)n2C`, the bioavailability in data set [2] came to 96.4%.
`COc1ccc(Nc2cc(-c3ncnc4cc(N5CCOCC5)ccc34)c(F)cc2Cl)nn1`: the pIC50 in data set [6] was 6.78.
For the molecule `C[C@@H]1COC[C@H]2COc3c(nc(-c4ccnc5[nH]ccc45)nc3C3(C#N)CC3)N21`, the negative logarithm of the IC50 (pIC50) against ATR/ATRIP [7] was 8.00; in the data set on LoVo it was 6.34.
With `NC(=O)c1cccc2cc(C(=O)N3CCN(c4nc(-c5cnc(N)cc5C(F)(F)F)nc(N5CCOCC5)n4)CC3)oc12`, the pIC50 with HCT-116 [8] is 6.71; in the data set with HCC1937 it was 6.78; in the data set with MDA-MB-231 it was 5.47.
On to `C[C@@H]1COCCN1c1cc(-c2ccnn2C)nc(-n2c(NCCO)nc3ccc(F)cc32)n1`, for which the figures for the pIC50 on ATR/ATRIP [9], with HCT-116 [10] and in the data set on NCI-H23 were above 6.30, above 5.00 and above 5.00, respectively.
Regarding `C[C@@H]1COCCN1c1nc(C(C)(C)C#N)c2[nH]nc(-c3ccn[nH]3)c2n1`, the pIC50 on ATR/ATRIP [7] is 8.52; in the data set with LoVo it was 7.26.
Regarding `COc1ccccc1NC(=O)c1ccc(NC(=O)N2CCN(C(=O)c3cc(Cc4n[nH]c(=O)c5ccccc45)ccc3F)CC2)cc1`, the results for the pIC50 in data set [3], in [4] and in data set [5] were 9.23, 7.46 and 8.19, respectively.
Consider `CC(C)n1c(=O)n(C)c2cnc3ccc(-c4ccc(OCCCN5CCCC5)nc4)cc3c21`, for which the pIC50 was below 4.52 in data set [11], 8.80 in [12], below 5.00 in [16] and below 5.00 in data set [17]. In addition, the Ratio IC50 in the data set listed under Homo sapiens [13], in the data set listed under Homo sapiens [14] and in the data set listed under Homo sapiens [15] was above 1000 in each case.
For `C[C@@H]1COCCN1c1nc(-c2nncc3[nH]ccc23)nc2c1OC1CC2(S(C)(=O)=O)C1`, the results for the pIC50 with LoVo and at ATR/ATRIP [18] were 7.69 and 6.98, respectively.
The molecule `C=CCn1c(=O)c2cnc(Nc3ccc4c(c3)OC[C@@H]3C[C@@H](N(C)C)CN43)nc2n1-c1ccc(C(C)(C)O)cn1` showed a pIC50 on Wee1-like protein kinase of 8.32.
Turning to `C[C@@H]1COC[C@H]2COc3c(nc(-c4ccnc5[nH]ccc45)nc3C3(S(C)(=N)=O)CC3)N21` (stereo partly specified), the pIC50 was 8.40 against ATR/ATRIP [7] and 6.16 in the data set on LoVo.
On to `Cc1ccc(-c2cc(N3CCOC[C@H]3C)nn3c(-c4ccn[nH]4)cnc23)cn1`, for which the pIC50 on ATR/ATRIP [19] is 6.42; in the data set with DU-145 it was 6.04; in the data set on NCI-H460, 6.49.
For `CN(C)CCCOc1ncc(-c2ccc3ncc4c(c3c2)C2(CCC2)C(=O)N4C)cc1NS(=O)(=O)C(F)(F)F`, the pIC50 in data set [20] and in data set [21] was 9.00 throughout.
`NC(=O)c1cccc2cn(-c3ccc([C@]4(F)CCCNC4)cc3)nc12`: the pIC50 in data set [22] is above 7.00.
On to `CCc1ncc(S(=O)(=O)Nc2cc(-c3ccc4ncc5c(c4c3)C3(CCC3)C(=O)N5C)cnc2OCCCN(C)C)s1`, for which the pIC50 in [20] and in [21] was 9.00 throughout.
